{
  "source": "paper PMC11134608",
  "about": "“UBR5 forms ligand-dependent complexes on chromatin to regulate nuclear hormone receptor stability” (Molecular cell, 2023)",
  "key": {"androgen receptor (AR) [1]": {"test_system": "androgen receptor (AR)", "test": "AR fluorescent reporter degradation", "assay_type": "cell-based, human", "conditions": "n = 3; for AR reporter degradation, significance: CI-4AS-1 5, 10, 20 uM", "experimental": "AR reporters with substitutions to the critical set of residues in the hydrophobic cleft (AR V713, V716, V730, and M734) were generated to match those found in RARA, RXRA, or GR. The wild-type AR reporter was not degraded following treatment with the synthetic AR agonist CI-4AS-1. […] Taken together, the data underscore the essentiality of the NR hydrophobic cleft for UBR5 binding and NR degradation.\nCells were analyzed for GFP vs mCherry expression."}, "AR^RARA mutant and UBR5": {"test_system": "AR^RARA mutant and UBR5", "test": "Co-immunoprecipitation of UBR5 with AR-RARA mutants", "assay_type": "cell-based, human", "conditions": "± CI-4AS-1 and MG132", "text": "(§1) Blotting was done as described above."}, "GR and UBR5": {"test_system": "GR and UBR5", "test": "UBR5/GR interaction in cells (BRET)", "assay_type": "cell-based, human", "conditions": "± dexamethasone, n = 3", "quoted_text": "Bioluminescence resonance energy transfer (BRET) experiments were done using the NanoBRET PPI kit (Promega, N1821) according to manufacturer’s instructions."}, "GR": {"test_system": "GR", "test": "GR degradation (western blot A549; GFP-GR reporter)", "assay_type": "cell-based, human", "experimental": "Reporter cell lines were seeded in triplicate at a density of 1 million cells/ml in 100 μl per well in a 96 well plate and measured once. Ligand was added by Digital Dispenser (Tecan), and incubated at 37°C for the appropriate time before reading by flow cytometry. Cells were analyzed for GFP vs mCherry expression. GFP expression was normalized to mCherry signal and ligand treatments were compared to DMSO controls.\nMembranes were blocked for 30 minutes to 1 hour at room temperature in Odyssey Blocking Buffer/PBS (LI-COR Biosciences), and incubated with primary antibodies at 4 °C overnight. Stained membranes were washed three times in Tris-buffered saline with Tween 20 (TBS-T) and incubated for 1 hour at room temperature with secondary IRDye-conjugated antibodies (LI-COR Biosciences). Membranes were washed three times in TBS-T before imaging (Odyssey Imaging System, LI-COR Biosciences)."}, "GR with NCOA2 and UBR5": {"test_system": "GR with NCOA2 and UBR5", "test": "Co-immunoprecipitation time course for GR", "assay_type": "cell-based, human", "conditions": "U937 GFP-GR, 0, 6, 12, 16, 24 h dexamethasone", "experimental": "We performed time course co-immunoprecipitation experiments for GR and blotted for NCOA2, GR, and UBR5 at 0, 6, 12, 16, and 24 h following dexamethasone treatment. […] Unlike RARA, which binds constitutively to chromatin, GR is sequestered in the cytoplasm and rapidly translocates to the nucleus following agonist binding.[44],[45]\nas §1"}, "[2]": {"test_system": "GR and UBR5 on chromatin in A549 cells", "test": "ChIP-seq of GR and UBR5 in A549 cells", "assay_type": "cell-based, human", "experimental": "Cell lines were expanded (up to 50 million), treated with ligand, and incubated at 37 °C. Cells were pelleted by centrifugation for 5 minutes, washed twice with cold PBS, and resuspended, in 5 ml of room temperature PBS. 20 μl of 0.5M Disuccinimidyl glutarate (DSG) (ThermoFisher), was added and incubated for 30 minutes at room temperature. Cells were pelleted by centrifugation and resuspended in 8.325 ml of PBS and 8.325 ml of 2% formaldehyde and incubated for 30 minutes at room temperature. Cross-linking was quenched by the addition of 1665 μl of 1 M Tris-HCl pH 8.0 and 832.5 μl of 2.5 M glycine. Cells were pelleted and washed twice with PBS. Cross-linked cells were resuspended in LB1 Buffer (50mM HEPES-KOH, pH7.5, 140mM NaCl, 1mM EDTA, 10% Glycerol, 0.5% NP-40, 0.25% Triton X-100 in distilled water) and rotated for 10 minutes at 4C. Cells were pelleted and resuspended in LB2 (10mM Tris-HCl, pH 8.0, 200mM NaCl, 1mM EDTA, 0.5mM EGTA in distilled water) and rotated for 10 minutes at 4C. Cells were pelleted and resuspended in LB3 (10mM Tris-HCL, pH 8.0, 100mM NaCl, 1mM EDTA, 0.5mM EGTA, 0.1% Na-deoxycholate, 0.5% Na-Lauroylsarcosine, 1% Triton X-100, in distilled water) sonicated (Covaris, E220). […] Fragment length and concentrations were assessed using TapeStation (Agilent) and Qubit (ThermoFisher), and libraries were sequenced on an Illumina NextSeq 550 sequencer. […]"}, "[3]": {"test_system": "dexamethasone-regulated gene expression in A549 cells", "test": "RNA sequencing of A549 cells", "assay_type": "cell-based, human", "conditions": "A549, 0, 24, 48 h", "experimental": "Cell lines were expanded, treated with ligand, and incubated at 37C. Cells were pelleted by centrifugation for 5 minutes, washed with cold PBS, and RNA was isolated by RNeasy kit (Qiagen) per manufacturer’s instructions. RNA was sent to Novogene for library preparation and sequencing, or prepared for sequencing (NEBNext, New England Biolabs) and sequenced on an Illumina NextSeq 550 sequencer.\nPaired-end reads were aligned to the hg38.p13[81],[82] reference genome with the STAR[83] (v5.2.7b) aligner as part of the RSEM[99] command line tool. Gene transcript abundance was further quantified from aligned fragments using RSEM to generate a gene-by-sample matrix of expected counts. Differential expression was tested, as with the ChIP-seq data, using the DESeq[88],[93]2 and ashr[94] pipeline, this time calculating sample-specific scale factor offset using the method of median-ratio as implemented in the R package EBSeq[100] (v1.36.0). For plotting in heatmaps, genes were selected based on ChIP-seq peak annotation and subset."}, "UBR5-ER": {"test_system": "UBR5-ER", "test": "In vitro FLAG-UBR5 pull-down of His-tagged ER", "assay_type": "binding, human", "conditions": "50 μM ER ligand", "experimental": "12 μL of FLAG M2 slurry were equilibrated with binding buffer (25 mM HEPES pH 7.4, 125 mM NaCl, 0.05% TWEEN-20). The resin was pelleted and excess buffer removed. 60 μL of fresh binding buffer was re-added, followed by addition of 15 pmol (2.5 μL ofa6 μM solution) of purified FLAG-UBR5 protein and incubated on a rotating wheel at 4°C for 60–90 minutes. The resin was pelleted, excess buffer removed, and 150 μL fresh binding buffer (supplemented with 50 μM ligand of interest or DMSO) added, followed by 150 pmol protein (binding partner protein of interest) and incubated for another 60 minutes. The resin was pelleted, excess buffer removed and washed with 400 μL of binding buffer (supplemented with ligand of interest or DMSO), and this process was repeated three times. The resin was pelleted, excess buffer removed and 45 μL of binding buffer supplemented with 1 mg/mL 3xFLAG peptide was added to elute proteins over 30 minutes on a rotating wheel at room temperature. The resin was pelleted, and 40 μL of the supernatant was collected and mixed with 12 μL of 5xSDS gel loading buffer. 6 μL of these samples were applied to SDS-PAGE on a 4–20% gradient gel (Biorad). The gel was transferred to a nitrocellulose membrane using the Trans-Blot Turbo Transfer System (Biorad). […]"}, "androgen receptor (AR) [4]": {"test_system": "androgen receptor (AR)", "conditions": "testosterone, ref [48]-[50]; cited from earlier work", "text": "Instead, it is shuttled […] the nucleus following agonist binding and transcriptional activation.[48]–[50] The hydrophobic cleft of AR has several amino acid differences from other NRs, which preferentially accommodate bulkier FxxLF motifs instead of the classic LxxLL.[51],[52] We hypothesized that these sequence differences might also prevent UBR5-mediated degradation and asked whether altering the hydrophobic cleft in AR could c ..."}},
  "data": [
    {"compound": "CN1C(=O)C=C[C@]2(C)[C@H]3CC[C@]4(C)[C@@H](C(=O)Nc5ccccc5Cl)CC[C@H]4[C@@H]3CC[C@@H]12", "note": "[CI-4AS-1]", "values": [
      {"measurement": "AR reporter degradation, significance", "setting": "androgen receptor (AR) [1]; AR V713F V730L M734V (RXR matched)", "result": "**** (**** p<0.00005)"},
      {"measurement": "AR reporter degradation, significance", "setting": "androgen receptor (AR) [1]; AR V713I V730I M734I (RARA matched)", "result": "** (**p<0.005)"},
      {"measurement": "AR reporter degradation, significance", "setting": "androgen receptor (AR) [1]; AR V713I V730L (GR matched)", "result": "**** (**** p<0.00005)"},
      {"measurement": "degradation of mutant AR reporters", "setting": "androgen receptor (AR) [1]; hydrophobic cleft matched to RARA, RXRA or GR", "result": "efficiently degraded"},
      {"measurement": "degradation of wild-type AR reporter", "setting": "androgen receptor (AR) [1]; wild-type AR", "result": "not degraded"},
      {"measurement": "UBR5 binding to AR^RARA mutants", "setting": "AR^RARA mutant and UBR5", "result": "strengthened binding in the presence of agonist"}
    ]},
    {"compound": "C[C@@H]1C[C@H]2[C@@H]3CCC4=CC(=O)C=C[C@]4(C)[C@@]3(F)[C@@H](O)C[C@]2(C)[C@@]1(O)C(=O)CO", "note": "[dexamethasone]", "values": [
      {"measurement": "UBR5 binding to GR in cells", "setting": "GR and UBR5", "result": "promoted binding of UBR5 to GR in cells"},
      {"measurement": "effect of UBR5 shRNAs on GR degradation", "setting": "GR; A549 western blot and reporter", "result": "rescued GR degradation"},
      {"measurement": "GR reporter degradation with predicted degron (cleft) mutations", "setting": "GR; GFP-GR mutants, likewise mutation of the UBR5 HECT domain", "result": "impaired dexamethasone-induced GR degradation"},
      {"measurement": "sequential binding of NCOA2 and UBR5 to GR", "setting": "GR with NCOA2 and UBR5", "result": "GR sequentially bound NCOA2 and then UBR5"},
      {"measurement": "GR ChIP-seq peaks", "setting": "[2]; A549, 15 min and 24 h dexamethasone", "result": "strikingly gained 15 min after addition of dexamethasone and subsequently decreased following sustained (24 h) dexamethasone treatment"},
      {"measurement": "UBR5 ChIP-seq peaks", "setting": "[2]; A549, 15 min dexamethasone", "result": "strongly increased after 15 min of dexamethasone treatment"},
      {"measurement": "effect of UBR5 knockdown on dexamethasone-regulated gene expression", "setting": "[3]", "result": "alter dexamethasone-regulated gene expression"}
    ]},
    {"compound": "C[C@]12CC[C@@H]3c4ccc(O)cc4CC[C@H]3[C@@H]1CC[C@@H]2O", "note": "[estradiol, beta-Estradiol]", "values": [
      {"measurement": "UBR5-ER interaction", "setting": "UBR5-ER", "result": "induced by estradiol"}
    ]},
    {"compound": "C[C@]12CC[C@H]3[C@@H](CCC4=CC(=O)CC[C@@]43C)[C@@H]1CC[C@@H]2O", "note": "[testosterone]", "values": [
      {"measurement": "AR stability / ligand-induced degradation", "setting": "androgen receptor (AR) [4]", "result": "stabilized by its endogenous ligand testosterone and does not undergo ligand-induced degradation"}
    ]}
  ]
}
